Reference: patent publication US20240018118A1, “TRICYCLIC COMPOUNDS TO DEGRADE NEOSUBSTRATES FOR MEDICAL THERAPY” (C 4 Therapeutics, Inc., priority 2020, published 2024)
Where two headings read alike, the source gives them in different places.

Experiments:
SALL4 = SALL4 (Homo sapiens, UniProt Q96SW2+Q9UJQ4); assay: HiBiT degradation assay, KELLY.2 (SALL4-HiBiT) cells; assay type: cell-based; conditions: for DC50: KELLY.2 cells, 6 hours; for Emax: read-out: HiBiT-Degradation KELLY.2 SALL4 6 hours Emax, KELLY.2 cells
Protocol: RPMI 1640 Medium without phenol red, fetal bovine serum (FBS), and Sodium Pyruvate (100 mM) were purchased from Gibco (Grand Island, NY, USA). Nano-Glo® HiBiT Lytic Assay System was purchased from Promega (Madison, WI, USA). […] Cell culture flasks and 384-well microplates were acquired from VWR (Radnor, PA, USA).
(§1) SALL4 degradation was determined based on quantification of luminescent signal using Nano-Glo® HiBiT Lytic Assay kit. Test compounds were added to the 384-well plate from a top concentration of 10 μM with 11 points, half log titration in duplicates. KELLY.2 cells were added into 384-well plates at a cell density of 6000 cells per well. The plates were kept at 37° C. with 5% CO2 for 6 hours. The cells treated in the absence of the test compound were the negative control and the cells without Nano-Glo® HiBiT Lytic reagent were the positive control. After 6-hour incubation, Nano-Glo® HiBiT Lytic Assay reagents were added to the cells. Luminescence was acquired on EnVision™ Multilabel Reader (PerkinElmer, Santa Clara, CA, USA).

CRBN = target: T1, CRBN (Homo sapiens, UniProt Q96SW2); assay: NanoBRET CRBN binding, 293T.116 cells; conditions: 2 hours
T1 construct: expressed in transfected cells; host or cells: 293T (line named 293T.116)

GSPT1 = GSPT1 (Homo sapiens, UniProt P15170+Q96SW2); assay: HiBiT degradation assay, 293T.114 cells, GSPT1; assay type: cell-based
Protocol: as §1, with “GSPT1” for “SALL4”, “5” for “11”, “3-fold” for “half log”, “quadruplicates. 293T.114” for “duplicates. KELLY.2”, “The plates were kept at 37° C. with 5% CO2 for 6 hours.” left out, “After 6-hour incubation, Nano-Glo® HiBiT Lytic Assay reagents were added to the cells.” left out

[1] = target: T2, CRBN-NanoLuc® fusion protein in 293T cells (Homo sapiens, UniProt Q96SW2); assay: NanoBRET assay: competitive displacement of pomalidomide-NanoBRET tracer from CRBN-NanoLuc in 293T.116 cells; assay type: binding; conditions: 2 h at 37° C., tracer at 300 nM
T2 construct: expressed in transfected cells; host or cells: 293T (line named 293T.116)
Protocol: The cell permeability and binding affinity of test compounds to cellular cereblon (CRBN) was determined by competitive displacement of a pomalidomide-NanoBRET™ tracer reversibly bound to a CRBN-NanoLuc® fusion protein in 293T cells. 293T cells were modified by lentiviral transfection to express a fusion of CRBN and NanoLuc® luciferase. […] Affinity of test compound was determined by displacement of NanoBRET-pomalidomide tracer signal following the addition of NanoBRET reagents (Promega) per manufacturer's instructions.
40 μL 293T.116 cells suspended in OptiMEM media at 2×10^5 cells/mL (8000 cells/well) were dispensed using a Multidrop Combi Reagent Dispenser (Thermo Fisher) to each well of 384-well white TC-treated microplates. 10 mM DMSO test compound stock solution was serially diluted (half log) in DMSO to generate 11-point dose series (10000, 3160, 1000, 316, 100, 31.6, 10, 3.2, 1, 0.3, 0.1 μM) in an acoustic ready 384-well low dead volume microplate (Labcyte). […] 20 μL NanoBRET TE Assay reagents were added to each well and NanoBRET signal was acquired on an EnVision Multilabel Reader (PerkinElmer). Donor emission from CRBN-NanoLuc was detected at 450 nm with a NanoLuc 460/50 filter and Acceptor fluorescence of NanoBRET-pomalidomide tracer (618 nm) was detected with a 600 nm long pass NanoBRET filter. Ratio of Acceptor signal/Donor signal was calculated for each well. […]

IKZF1 = target: T3, IKZF1 (Homo sapiens, UniProt Q13422+Q96SW2); assay: HiBiT degradation assay, NCIH929.11 (HiBiT-IKZF1) cells; assay type: cell-based; conditions: for DC50: NCHI929.11 cells, 6 hours; for Emax: read-out: HiBiT-Degradation NCHI929.11 IKZF1 6 hours Emax, NCHI929.11 cells
T3 construct: endogenously expressing IKZF1 with HiBiT fusion tag via CRISPR; endogenous in cells; host or cells: NCIH929.11 (CRISPR knock-in)
Protocol: RPMI no-phenol red medium and fetal bovine serum (FBS) were purchased from Gibco (Grand Island, NY, USA). Nano-Glo® HiBiT Lytic Assay System was purchased from Promega (Madison, WI, USA). NCIH929.11 (HiBiT-IKZF1) cell line was generated in house, endogenously expressing IKZF1 with HiBiT fusion tag via CRISPR. Cell culture flasks and 384-well microplates were acquired from VWR (Radnor, PA, USA).
IKZF 1 degradation was determined based on quantification of luminescent signal using Nano-Glo® HiBiT Lytic Assay kit. Test compounds were added to the 384-well plate from a top concentration of 10 μM with 11 points, half-log titration in duplicates. NCIH929.11 cells expressing HiBiT-tagged TKZF1 were added into 384-well plates in RPMI medium containing 10% FBS and 0.05 mM 2-mercaptoethanol at a cell density of 15000 cells per well. The plates were kept at 37° C. with […] for 6 hours. Cells treated in the absence of the test compound were the negative control and wells containing media only were the positive control. After 6-hour incubation, Nano-Glo® HiBiT Lytic Assay reagents were added to the designated wells. Luminescence was acquired on EnVision™ Multilabel Reader (PerkinElmer, Santa Clara, CA, USA).

IKZF2 = IKZF2 (Homo sapiens, UniProt Q96SW2+Q9UKS7); conditions: cited from earlier work
IKZF4 = IKZF4 (Homo sapiens, UniProt Q96SW2+Q9H2S9); conditions: cited from earlier work
[2] = 293T.114 cells, 6 hours, read-out: HiBiT-Degradation 293T.114 GSPT1 6 hours DC50
[3] = read-out: HiBiT-Degradation 293T.114 GSPT1 6 hours Emax, 293T.114 cells, 6 hours
[4] = 293T.114 cells, 24 hours, read-out: HiBiT-Degradation 293T.114 GSPT1 24 hours DC50
[5] = 293T.114 cells, 24 hours, read-out: HiBiT-Degradation 293T.114 GSPT1 24 hours Emax
[6] = 293T.114 cells, 48 hours, read-out: HiBiT-Degradation 293T.114 GSPT1 48 hours DC50
[7] = 293T.114 cells, 48 hours, read-out: HiBiT-Degradation 293T.114 GSPT1 48 hours Emax
[8] = read-out: GSPT1 Emax @ 10 μM 24 Hours, 24 hours

Row | Structure (SMILES) | DC50 (SALL4) [µM] | Emax (SALL4) [%] | IC50 (CRBN) [µM] | DC50 (GSPT1; [2]) [µM] | Emax (GSPT1; [3]) [%] | IC50 [1] [µM] | DC50 (IKZF1) [µM] | Emax (IKZF1) [%] | degradation of IKZF2 (IKZF2) | degradation of IKZF4 (IKZF4) | DC50 (GSPT1; [4]) [µM] | Emax (GSPT1; [5]) [%] | DC50 (GSPT1; [6]) [µM] | Emax (GSPT1; [7]) [%] | Emax (GSPT1; [8]) [%]
1 | O=C1CCC(N2C(=O)c3ccc(Br)c4cccc2c34)C(=O)N1 (centres unmarked) [Compound 224] | < 0.1 | < 45 | < 0.1 | > 10 | 60 to 95 | 0.04 | > 10 | 60 to 95 | – | – | – | – | – | – | –
2 | O=C1CC[C@H](N2Cc3c(OCc4ccc(CN5CCOCC5)cc4)cccc3C2=O)C(=O)N1 [CC-220] | – | – | – | – | – | – | – | – | efficiently degraded | efficiently degraded | – | – | – | – | –
3 | CC1(C(=O)N2CCC(n3cc(Cc4ccc5c6c(cccc46)C(=O)N5[C@H]4CCC(=O)NC4=O)cn3)CC2)CCC1 [Compound 206, (3S)-3-[6-[[1-[1-(1-methylcyclobutanecarbonyl)-4-piperidyl]pyrazol-4-yl]methyl]-2-oxo-benzo[cd]indol-1-yl]piperidine-2,6-dione] | < 0.1 | < 45 | < 0.1 | > 10 | > 95 | – | < 0.1 | < 45 | – | – | – | – | – | – | –
4 | Cc1nc2cccc(N)c2c(=O)n1C1CCC(=O)NC1=O (centres unmarked) [CC-122] | – | – | – | – | – | – | – | – | not degraded | not degraded | – | – | – | – | –
5 | CCOC(=O)c1cc(Cc2ccc3c4c(cccc24)N(C2CCC(=O)NC2=O)C3=O)ccc1F (centres unmarked) [Compound 69, ethyl 5-[[1-(2,6-dioxo-3-piperidyl)-2-oxo-benzo[cd]indol-5-yl]methyl]-2-fluoro-benzoate] | > 10 | 60 to 95 | < 0.1 | > 10 | 60 to 95 | – | > 10 | 60 to 95 | – | – | – | – | – | – | –
6 | N#Cc1ccc(Cc2ccc3c4c(cccc24)N(C2CCC(=O)NC2=O)C3=O)cc1 (centres unmarked) [Compound 66, 4-[[1-(2,6-dioxo-3-piperidyl)-2-oxo-benzo[cd]indol-5-yl]methyl]benzonitrile] | 0.1 to 1 | 45 to 60 | < 0.1 | – | – | – | > 10 | 60 to 95 | – | – | > 10 | 60 to 95 | > 10 | 60 to 95 | –
7 | CCOC(=O)c1cccc(Cc2ccc3c4c(cccc24)N(C2CCC(=O)NC2=O)C3=O)c1 (centres unmarked) [Compound 62, ethyl 3-((1-(2,6-dioxopiperidin-3-yl)-2-oxo-1,2-dihydrobenzo[cd]indol-5-yl)methyl)benzoate] | > 10 | 60 to 95 | < 0.1 | > 10 | 60 to 95 | – | > 10 | 60 to 95 | – | – | – | – | – | – | < 45
8 | CCOC(=O)c1ccc(Cc2ccc3c4c(cccc24)N(C2CCC(=O)NC2=O)C3=O)cc1 (centres unmarked) [Compound 61, ethyl 4-((1-(2,6-dioxopiperidin-3-yl)-2-oxo-1,2-dihydrobenzo[cd]indol-5-yl)methyl)benzoate] | 0.1 to 1 | < 45 | < 0.1 | > 10 | 45 to 60 | – | 0.1 to 1 | < 45 | – | – | – | – | – | – | < 45
9 | CCOc1ccc(Cc2ccc3c4c(cccc24)N(C2CCC(=O)NC2=O)C3=O)cc1 (centres unmarked) [Compound 68, 3-[5-[(4-ethoxyphenyl)methyl]-2-oxo-benzo[cd]indol-1-yl]piperidine-2,6-dione] | > 10 | 60 to 95 | < 0.1 | > 10 | 60 to 95 | – | > 10 | 60 to 95 | – | – | – | – | – | – | –
10 | O=C1CCC(N2C(=O)c3ccc(CNC(=O)C(F)(F)c4ccc(Cl)cc4)c4cccc2c34)C(=O)N1 (centres unmarked) [Compound 64, 2-(4-chlorophenyl)-N-[[1-(2,6-dioxo-3-piperidyl)-2-oxo-benzo[cd]indol-5-yl]methyl]-2,2-difluoro-acetamide] | < 0.1 | < 45 | < 0.1 | > 10 | 45 to 60 | – | > 10 | 45 to 60 | – | – | – | – | – | – | < 45
11 | Nc1cccc2c1C(=O)N(C1CCC(=O)NC1=O)C2=O (centres unmarked) [pomalidomide] | – | – | – | – | – | – | – | – | not degraded | not degraded | – | – | – | – | –
12 | CC(C)OC1CCN(Cc2cc3c4c(cccc4c2)N(C2CCC(=O)NC2=O)C3=O)CC1 (centres unmarked) [Compound 161] | > 10 | 60 to 95 | < 0.1 | – | – | – | 1 to 10 | < 45 | – | – | > 10 | 60 to 95 | > 10 | 60 to 95 | –
13 | N#Cc1ccc2c3c(cccc13)N(C1CCC(=O)NC1=O)C2=O (centres unmarked) [Compound 225] | – | – | – | – | – | 0.06 | – | – | – | – | – | – | – | – | –
14 | CCOc1ccc(Cc2ccc3c4c(cccc24)N(C2CCC(=O)NC2=O)C3=O)c(F)c1 (centres unmarked) [Compound 60, 3-(5-(4-ethoxy-2-fluorobenzyl)-2-oxobenzo[cd]indol-1(2H)-yl)piperidine-2,6-dione] | > 10 | 60 to 95 | < 0.1 | > 10 | 60 to 95 | – | > 10 | 60 to 95 | – | – | – | – | – | – | < 45
15 | O=C1CCC(N2C(=O)c3ccc(CN4CC(Oc5ccccc5)C4)c4cccc2c34)C(=O)N1 (centres unmarked) [Compound 158] | < 0.1 | < 45 | < 0.1 | < 0.1 | < 45 | – | < 0.1 | < 45 | – | – | < 0.1 | < 45 | – | – | –
